{"source": "patent US20250222028A1", "about": "“ENGINEERED IMMUNE CELL PLATFORM” (Cancer Research Technology Limited, priority 2022, published 2025)", "key": {"[1]": {"system": "L-type voltage gated Ca^2+ channel", "test": "Calcium flux after TCR crosslinking in murine CD8+ CTLs", "format": "cell-based", "text": "FIG. 14. […] Murine CD8^+ CTLs were loaded with Calcium Sensor Dye eFluor™ 514, anti-CD3ε antibodies and calcium channel inhibitors/agonist. Other Calcium channels expressed in CD8 T cells were inhibited: “Block”=BTP2 inhibits CRAC channels downstream of the TCR, and BCTC inhibits TRPV channels. […] T cell receptor (TCR) crosslinking was induced 30 s after the start of sample acquisition by adding antibodies to crosslink the TCR. Arrows indicate the initiation of the calcium flux following TCR crosslinking. The line indicates the baseline fluorescence of the Calcium Sensor Dye eFluor™ 514. Data shown is representative of two independent experiments."}, "GLI1 [2]": {"system": "GLI1", "test": "GLI1 expression by qRT-PCR in NK-92 cells", "format": "cell-based, human", "details": "10 μM", "description": "FIG. 5. L-type Cav channel agonists increase GLI1 expression in the human NK cell line NK-92 and promote specific tumour cell killing. (A) NK-92 cells were stimulated using an anti-NKp46 mAb for 4 hours in the presence of 10 μM FPL 64176, and GLI1 expression was assessed using qRT-PCR. Data is n=4 independent experiments. (B) NK-92 cells were stimulated using an anti-NKp46 mAb for 4 hours in the presence of 100 μM Bay K8644, and GLI1 expression was assessed using qRT-PCR. Data is n=3 independent experiments. (C) An LDH assay was performed to assess specific cell killing of K562 target cells at indicated effector to target ratios in the presence of 10 μM FPL 64176 (right-hand columns) or carrier control (left-hand columns). Error bars indicate SD. Data is from n=3 independent experiments.\nTo investigate whether L-type Cav channel agonists are also capable of enhancing GLI1 mRNA levels in the human NK cell line NK-92 (a non-Hodgkin's lymphoma cell line, expressing only Cav1.3), NK-92 cells were stimulated using an anti-NKp46 mAb (5 μg/mL) for 4 hours in the presence of either 10 μM FPL 64176 or 100 μM Bay K8644. For reference, Bay K8644 is a structural analogue of nifedipine, and acts as an L-type Cav channel agonist. GLI1 expression was assessed using qRT-PCR. […] These observations confirm that the GLI1-inducing effect of Cav agonists is not merely restricted to the compound FPL 64176. In particular, in NK cells."}, "K562 target cells": {"system": "K562 target cells", "test": "LDH killing assay, NK-92 cells with K562 target cells", "format": "cell-based, human", "details": "10 μM, vs carrier control", "description": "FIG. 5. L-type Cav channel agonists increase GLI1 expression in the human NK cell line NK-92 and promote specific tumour cell killing. (A) NK-92 cells were stimulated using an anti-NKp46 mAb for 4 hours in the presence of 10 μM FPL 64176, and GLI1 expression was assessed using qRT-PCR. Data is n=4 independent experiments. (B) NK-92 cells were stimulated using an anti-NKp46 mAb for 4 hours in the presence of 100 μM Bay K8644, and GLI1 expression was assessed using qRT-PCR. Data is n=3 independent experiments. […]\nFIG. 7. […] Killing of K562 tumour cells was assessed after 24 h by LDH killing assay. […]\nIn order to establish whether an increase in GLI1 expression is correlated with an increase in NK-92 cell effector function, NK-92 were co-cultured with K562 myelogenous leukaemia cells in the presence of 10 μM FPL 64176 or carrier control, at the effector:target ratios indicated in FIG. 5C. Cell killing was assessed using the LDH assay, as previously described.\nTo determine if the increased specific cell killing seen in Gorlin patients can be achieved by engineering cells to express a gain-of-function mutation resulting in increased Gli1 signalling, NK-92 cells were engineered to stably express the I756T GOF mutation in Cav1.4. […] Killing of K562 tumour cells was assessed after 24 h by LDH killing assay. […]"}, "GLI1 [3]": {"system": "GLI1", "test": "GLI1 mRNA expression by qRT-PCR in human CD8+ T cells and CTLs", "format": "cell-based", "description": "FIG. 3. L-type Cav channel agonists increase expression of GLI1 and enhance specific cell killing by human CD8+ CTLs. Naïve human CD8+ T cells were purified from the buffy coat layer of blood isolated from healthy donors, and were stimulated using ImmunoCult™ CD3/CD28/CD2 human T-Cell Activator and again restimulated at day 10 for 3 days. (A) Human CTLs were restimulated on day 15-20 for 24 h with plate-bound anti-CD3 in the presence of 10 μM of FPL64176 or carrier control before RNA was extracted for qRT-PCR analysis. n=1 healthy donor. TBP is used as a reference gene. (B) Updated graph of (A) showing n=3 independent experiments/healthy donors. Gli1 expression is normalised to carrier. […] Error bars indicate SD. p values were calculated using an unpaired two-tailed Student's t test (B) or a two-way ANOVA (C/D). * indicates p<0.05, ** indicates p<0.01, **** indicates p<0.0001.\nIn order to assess the role of L-type Cav channel agonists in controlling the activation and effector function of human CD8+ T cells, naive primary human CD8+ T cells were purified from the buffy coat layer of blood isolated from healthy donors. Cells were stimulated using ImmunoCult™ Human CD3/CD28/CD2 T Cell Activator beads for 24 hours in the presence of 5 or 10 μM FPL 64176 or carrier control, and GLI1 mRNA expression was assessed by qRT-PCR. […]"}}}
{"smiles": "COC(=O)c1c(C)[nH]c(C)c1C(=O)c1ccccc1Cc1ccccc1", "note": "[FPL 64176]", "values": [{"measurement": "initiation of Ca^2+ flux following TCR crosslinking", "setting": "[1]", "result": "accelerates"}, {"measurement": "Cav-mediated Ca^2+ flux", "setting": "[1]; CRAC and TRPV channels blocked with BTP2 and BCTC", "result": "specifically increases"}, {"measurement": "GLI1 expression", "setting": "GLI1 [2]; stimulated with anti-NKp46 mAb 4 hours, vs carrier control", "result": "increased"}, {"measurement": "GLI1 expression", "setting": "GLI1 [2]; unstimulated cells", "result": "No significant increase"}, {"measurement": "target cell killing by NK-92 cells", "setting": "K562 target cells", "result": "enhanced"}, {"measurement": "GLI1 expression", "setting": "GLI1 [3]; human CD8+ CTLs restimulated day 15-20 with plate-bound anti-CD3, 10 μM, 24 hours (FIG. 3B)", "result": "increase"}, {"measurement": "GLI1 expression", "setting": "GLI1 [3]; naive human CD8+ T cells, CD3/CD28/CD2 activator 24 hours, 5 or 10 μM (FIG. 3A)", "result": "dose-dependent increase"}]}
